Structures are written as SMILES.

In this experiment the target is T1, ERR-α (Homo sapiens, UniProt P11474).
T1 construct: made in house; host or cells: Spodoptera frugiperda (Sf9) insect cells, baculovirus
T1 sequence (P11474 with tags, fused parts or gaps): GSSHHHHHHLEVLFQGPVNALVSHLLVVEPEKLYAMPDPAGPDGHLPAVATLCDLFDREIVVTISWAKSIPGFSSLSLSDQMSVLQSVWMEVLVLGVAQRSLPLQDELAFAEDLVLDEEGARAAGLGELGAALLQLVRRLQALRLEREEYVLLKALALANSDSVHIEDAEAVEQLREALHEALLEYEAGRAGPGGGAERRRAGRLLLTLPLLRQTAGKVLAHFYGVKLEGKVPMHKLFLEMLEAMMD
Description: LC/MS kinetics of association and dissociation for ligands forming a covalent bond to Cys325 of ERR-α. The format is binding. Conditions: dissociation rate by LC/MS with 20-fold excess Compound 2 as competing ligand; 37° C. The text has this:
The progress of the reaction was also expressed as a fraction of the area observed for the complex of ERR-α and the competing ligand over the sum of total area for the complex of ERR-α with the ligand and the complex of ERR-α with the competing ligand.
where k is the apparent rate constant.
On to `COc1cc(/C=C2\SC(=O)NC2=O)ccc1Oc1ccc(C#N)cc1C(F)(F)F` [Compound 1], for which the kd worked out at 1.1e-05 s⁻¹.

As for `COc1cc(/C=C2\SC(N3CCN(C)CC3)=NC2=O)ccc1Oc1ccc(C#N)cc1C(F)(F)F` [Compound 3], the kd was found to be 1.53e-05 s⁻¹.

`CN1CCN(C2=NC(=O)/C(=C/c3ccc(Oc4ccc(C#N)cc4C(F)(F)F)c(F)c3)S2)CC1` [Compound 4]: the kd came to 2.19e-05 s⁻¹.

In turn, `COc1cc(/C=C2\SC(N)=NC2=O)ccc1Oc1ccc(C#N)cc1C(F)(F)F` [Compound 5] returned a kd of 2.05e-05 s⁻¹.

Source of the values: patent publication US8927297B2, “Methods to measure dissociation rates for ligands that form reversible covalent bonds” (Janssen Pharmaceutica N.V., priority 2009, dated 2015).
